# Tests used:
# [1] = target: EGFR (Homo sapiens, UniProt P00533); assay: Immunoblotting for activated EGFR in NCI-H292 cells; format: cell-based; design: NCI-H292 cells expressed EGSR mRNA constitutively; endogenous in cells; host or cells: NCI-H292 (human pulmonary mucoepidermoid carcinoma); conditions: stimulated 15 minutes
# Experimental: Cells were serum-starved for 24 hours and then stimulated with cigarette smoke solution or with TGFα for 15 minutes. After stimulation, cells were lysed with lysis buffer (20 mM sodium phosphate, pH 7.8, 150 mM NaCl, 5 mM EDTA, 50 mM HEPES, 1% Triton-X100, 50 mM NaF, 1 mM sodium orthovanadate, 5 mM PMSF, and 10 μg/ml each of leupeptin and aprotinin) and incubated for 30 minutes at 4° C. To remove insoluble materials, cell lysates were centrifuged at 14,000 rpm for 5 minutes at 4° C. Aliquots of supernatants containing equal amounts of protein were suspended in SDS sample buffer and boiled for 5 minutes. Proteins were separated by SDS-PAGE in 4-15% acrylamide gel. The resulting gel was equilibrated in the transfer buffer: 25 mM Tris-HCl, 192 mM glycine, 20% (vol/vol) methanol, pH 8.3. The proteins were then transferred electrophoretically to nitrocellulose membranes, which were incubated with 5% fat-free skimmed milk in PBS containing 0.05% Tween 20 for 1 hour and then incubated with anti-phospho-specific EGFR mAb (2 μg/ml, Calbiochem) overnight. Bound Ab was visualized according to a standard protocol for the avidin-biotin-alkaline phosphatase complex method (ABC kit, Vector Laboratories, Burlingame, Calif.).
# [2] = test system: NCI-H292 cells; assay: Alcian blue/PAS staining of NCI-H292 cells for mucin glycoproteins; format: cell-based, human; conditions: TNFα 20 ng/ml; EGF, TGFα each 25 ng/ml
# Experimental: (§1) Cell culture. A human pulmonary mucoepidermoid carcinoma cell line, NCI-H292 cells, were grown in RPMI11640 medium containing 10% fetal bovine serum, penicillin (100 U/ml), streptomycin (100 μg/ml) at 37° C. in a humidified 5% CO2 water-jacketed incubator. […] In inhibition studies with an EGF-R tyrosine kinase inhibitor, BIBX1522 (10 μg/ml, generously provided by Boehringer Ingelheim Inc., Ingelheim, Germany), cells were pretreated with BIBX1522 30 min before adding growth factors. After incubation, cells grown in a T-75 flask were used for total RNA extraction or protein extraction, and 8-chamber slides were used for Alcian blue/PAS-staining to visualize mucins.
# [3] = test system: pathogen-free rats; assay: Goblet cell production in pathogen-free rats after tracheal instillation of TNFα and EGF-R ligands; format: in vivo, rat
# Experimental: Healthy rats. Rats were anesthetized with methohexital sodium (Brevital sodium, 50 mg/kg, i.p.; Eli Lilly & Co., Indianapolis, Ind.) and allowed to breathe spontaneously. […] In each study, sterile PBS (100 μl) was instilled into the trachea as control. […] Rats were pretreated with BIBX1522 (3, 10 or 30 mg/kg, i.p.), 1 h before and 24 h after instillation of TGFα. The trachea and lungs were removed for examination 48 h after the instillation of TGFα.
# Tissue preparation. At preselected times during anesthesia, the systemic circulation was perfused with 1% paraformaldehyde in DEPC-treated PBS at a pressure of 120 mmHg. The trachea was then removed and placed in 4% paraformaldehyde for 24 h. After fixation, trachea and lungs were embedded in either JB-4 plus monomer solution A for cell analysis or O.C.T. compound (Sakura Finetek U.S.A., Inc., Torrance, Calif.) for immunohistochemistry and in situ hybridization. The embedded tissues were cut as cross sections ([…] thick) and placed on slides.
# Cell analysis. We counted the total number of epithelial cells by counting epithelial cell nuclei over 2 mm of the basal lamina with an oil immersion objective lens (×1000 magnification). The linear length of the basal lamina under each analyzed region of epithelium was determined by tracing the contour of the digitized image of the basal lamina. After instillation of stimuli, “developing” goblet cells form. These cells have Alcian blue/PAS-positive granules, but the size of granules is small, and the number of cytoplasmic granules is few. We call these “developing” goblet cells “pre-goblet cells”, a stage before cells become mature goblet cells. Goblet cells are tall, cuboidal, goblet to low columnar in shape, with abundant Alcian blue/PAS-stained granules filling most of the cytoplasm between the nucleus and the luminal surface. Pre-goblet cells are defined as cells with smaller mucus-stained areas (<1/3 height in epithelium from basement membrane to luminal surface) or with sparsely and lightly Alcian blue/PAS-stained, small granules. Ciliated cells are recognized by their ciliated borders, lightly stained cytoplasm, and large round nuclei. Non-granulated secretory cells are columnar in shape and extend from the lumen to the basal lamina. The cytoplasm stains light pink color, and a few tiny PAS-positive and Alcian blue-negative granules are observed in the cytoplasm. Basal cells are small flattened cells with a large nucleus, located just above the basal lamina but not reaching the airway lumen.
# Quantification of goblet cell production. Goblet cell production, was determined by the volume density of Alcian blue/PAS-stained mucosubstances on the mucosal surface epithelium using a semi-automatic imaging system described elsewhere (Weber et al. (1984) Science 224:294-297). We measured the Alcian blue/PAS-positive stained area and the total epithelial area and expressed the data as the percentage of the total area stained by Alcian blue-PAS. The analysis was performed with the public domain NIH Image program (developed at the U.S. National Institute of Health and available from the Internet by anonymous FTP from zippy.nimh.gov or on floppy disk from the National Technical Information Service, Springfield, Va., part number PB95-500195GEI).
# Immunohistochemical localization of EGF-R in rat epithelium. The localization of EGF-R was examined using immunchistochemical staining with an antibody to EGF-R (Calbiochem, San Diego, Calif.) in frozen sections of rat trachea. After perfusion with 1% paraformaldehyde in PBS, tissues were placed in 4% paraformaldehyde in PBS for 1 h and then removed in 30% sucrose for cryoprotection overnight. Tracheas were embedded in O.C.T. compound (Sakura Finetek U.S.A., Inc., Torrance, Calif.) and frozen. Frozen sections (5 μm) were cut and placed on glass slides (Superfrost Plus, Fisher Scientific, Pittsburgh, Pa.). Immunostaining was performed similarly to the in vitro studies.
# [4] = test system: NCI-H292 cells; assay: Northern analysis for MUC5 gene expression in NCI-H292 cells; format: cell-based, human; conditions: EGF or TGFα 25 ng/ml, TNFα 20 ng/ml; 12 h, 24 h
# Experimental: as §1
substance,measurement,setting,value
"TGFα: transforming growth factor alpha, EGF-R ligand (recombinant human; rat synthetic in vivo)",EGFR-specific tyrosine phosphorylation,[1],increased
same,PAS-positive staining on incubation with mediator,[2],increased PAS-positive staining
same,Goblet cells in tracheal epithelium,"[3]; TGFα 250 ng alone or 24 h after TNFα 200 ng, i.t., 48 h later, counted over 2 mm basal lamina, mean ± SEM, 5 rats",5.8 ± 1.2
same,% of AB/PAS-stained area,[3]; as E9,6.8 ± 1.9%
same,Basal cells in tracheal epithelium,[3]; as E9,56.8 ± 2.3
same,Ciliated cells in tracheal epithelium,[3]; as E9,54.6 ± 2.3
same,Indeterminate cells in tracheal epithelium,[3]; as E9,2.0 ± 0.4
same,Pre-goblet cells in tracheal epithelium,[3]; as E9,12.8 ± 1.6
same,Secretory cells in tracheal epithelium,[3]; as E9,72.2 ± 4.0
same,Total cells in tracheal epithelium,[3]; as E9,204.2 ± 3.3
same,MUC5 gene expression on incubation with mediator,[4],clearly expressed at 24 h
